Data reported in patent US20210215694A1, “FILM OF CHITOSAN AND A DEVICE COMPRISING THE SAME DEPOSITED ON A SUBSTRATE AND USES THEREOF” (priority 2018, published 2021).
Like-named read-outs stand apart in the source and are kept apart here.

How the values were obtained:
UTI227 [1] = settings: for Outcome: UTI227
Procedure: CMI determination. Different channels were prepared simultaneously with the same cell suspension. Antibiotic was prepared at different concentrations (one channel contained only LB as a control) and added to channel just before image acquisition: each channel contain a different antibiotic concentration. A picture was taken every 2 or 3 minutes in each channel. At the end of the acquisition we determined if concentrations tested induced cell death or not.
(§1) Minimum inhibitory concentration. Several experiments were performed with different ETP concentrations added to UTI 227 cells.

UTI 687 cells = assay: Cell death detection with propidium iodide stain on chitosan χ1; assay type: cell-based, Escherichia coli; settings: 3 mg/L, 50 μL/mL of PI
Procedure: Following the protocol described in material and methods, UTI 687 cells were contacted with chitosan χ1 surface. Before acquisition, channel was rinsed with LB supplemented with 3 mg/L of ETP and 50 μL/mL of PI (FIG. 11B).

UTI227 [2] = assay: CMI by Vitek; assay type: cell-based, Escherichia coli
Procedure: as §1

UTI 227 = assay: Dose-dependent answer: time for cell death; assay type: cell-based, Escherichia coli; settings: different concentrations
Procedure: (§2) Dose-dependent answer. Ertapenem (ETP) is an antibiotic used in the medical field in order to determine MIC. ETP was tested at different concentrations on UTI 227 and for each cell observed, the time for cell death was quantified (FIGS. 7B and 7C). […] Similarly, UTI 687 was contacted with different concentration of mecillinam (MEC), and the cell width was quantified.

UTI 687 [3] = assay: Antibiotic susceptibility from blood culture on chitosan χ1; assay type: cell-based, Escherichia coli; settings: UTI 687 grown in blood culture vial
Procedure: Antibiotic susceptibility from blood culture. UTI 687 was cultivated in LB medium and then diluted to obtain a cell concentration close to the one find in blood during septicemia (final concentration: 5 CFU/ml). The suspension was then inoculated in culture vial for blood culture. After over-night culture (agitation, 37° C.), culture suspension was diluted in LB media for a final OD=0.01. Cells are then prepared as describe in material and method to determine cell susceptibility to ETP.
Antibiotic susceptibility from blood culture. […] These debris probably originate from blood culture media. However, it was possible to determine a CMI: CMIχ1≤1, which is coherent with the expected values.

K12 cells = settings: K12 on commercial chitosan; 50 μL/mL PI; after 30 seconds
Procedure: Propidium iodide (PI) is used as a DNA stain which cannot cross the membrane of live cells, making it useful to differentiate dead, dying and healthy cells. K12 cells were immobilized to commercial chitosan on microfluidic chamber (channels in PDMS) in presence or absence of EtOH 70%. Channels were rinsed with LB, 50 μL/mL PI.

UTI698 [4] = assay: CMI by Vitek; assay type: cell-based, Escherichia coli
Text: (§3) For each conditions, a similar result was obtained.

UTI704 [5] = assay: CMI by Vitek; assay type: cell-based, Escherichia coli
Text: as §3

UTI 687 [6] = assay: Dose-dependent answer: cell width; assay type: cell-based, Escherichia coli; settings: 2 mg/L, after 1 hour of contact
Procedure: as §2

UTI698 [7] = assay: CMI (MIC) determination on chitosan χ1 channels; assay type: cell-based, Escherichia coli
Text: as §3

UTI704 [8] = assay: CMI (MIC) determination on chitosan χ1 channels; assay type: cell-based, Escherichia coli
Text: as §3

UTI687 [9] = assay: CMI by Vitek; assay type: cell-based, Escherichia coli
Text: as §3

UTI687 [10] = assay: CMI (MIC) determination on chitosan χ1 channels; assay type: cell-based, Escherichia coli
Text: as §3

K12 = assay: Visualization of antibiotics susceptibility; assay type: cell-based, Escherichia coli
Procedure: Visualization of antibiotics susceptibility. Two channels were prepared with K12, identically. Before starting picture acquisition, one channel was rinsed with LB media, the other one with LB media supplemented with 100 μg/ml of ampicillin. […] Morphological changes were observed earlier than 1 hour and cell death imaged by lysis occurred right after 2 hours of incubation.

[11] = concentration 1 (head mg/ml, title mg/L)
[12] = concentration 2 (head mg/ml, title mg/L)
[13] = concentration 0.25 (head mg/ml, title mg/L)
[14] = concentration 0.5 (head mg/ml, title mg/L)

In the case of C[C@@H](O)[C@H]1C(=O)N2C(C(=O)O)=C(S[C@@H]3CN[C@H](C(=O)Nc4cccc(C(=O)O)c4)C3)[C@H](C)[C@H]12 [Ertapenem], the “Concentration above which a cytotoxic effect was observed” value (UTI227 [1]) is reported as “above 0.01 mg/L”, the Outcome (UTI227 [1]; concentration 0.01 (mg/L)) is reported as “Growth” and the Outcome (UTI227 [1]; concentration 0.05 (mg/L)) is reported as “Death”. The Outcome (UTI227 [1]; concentration 0.1 (mg/L)) was “Death”, the Outcome (UTI227 [1]; concentration 0.125 (mg/L)) was “Death” and the Outcome (UTI227 [1]; concentration 0.25 (mg/L)) was “Death”. The Outcome (UTI227 [1]; concentration 0.5 (mg/L)) was “Death”, the Outcome (UTI227 [1]; concentration 0.75 (mg/L)) was “Death” and the “Propidium iodide staining of cells” value (UTI 687 cells) was “some cells turned in red”. For the same molecule, the “CMI (Vitek)” value (UTI227 [2]) was at most 0.5 mg/L, the “CMI (Vitek)” value (UTI227 [2]; listed as ETP) was at most 0.5 mg/L and the “Time for cell death according to concentration” value (UTI 227) was “significantly faster for a higher concentration”. It also gave a CMIχ1 (UTI 687 [3]) of at most 1.

For CCO [EtOH 70%, EtOH], the “Propidium iodide fluorescence of cells” value (K12 cells) was “all the cells incubated with EtOH were fluorescent”.

In the case of CC1(C)S[C@@H]2[C@H](/N=C/N3CCCCCC3)C(=O)N2[C@H]1C(=O)O [Mecillinam, mecillinam], the Outcome (UTI227 [1]; concentration 4 (mg/L)) is reported as “Growth”, the Outcome (UTI227 [1]; concentration 8 (mg/L)) is reported as “Death” and the Outcome (UTI227 [1]; concentration 12 (mg/L)) is reported as “Death”. The Outcome (UTI227 [1]; concentration 16 (mg/L)) was “Death”, the “CMI (Vitek)” value (UTI227 [2]) was 8 mg/L and the “CMI (Vitek)” value (UTI698 [4]) was at most 1 mg/L. The “CMI (Vitek)” value (UTI704 [5]) was 2 mg/L, the Cell width (UTI 687 [6]) was “An augmentation was observed” and the “CMI (measured)” value (UTI698 [7]; chitosan χ1) was at most 1 mg/L. For the same molecule, the Outcome (UTI698 [7]; [11]) was “Death”, the Outcome (UTI698 [7]; [12]) was “Death” and the Outcome (UTI698 [7]; concentration 5 (head mg/ml, title mg/L)) was “Death”. For the same molecule, the “CMI (measured)” value (UTI704 [8]; chitosan χ1) was at most 2 mg/L, the Outcome (UTI704 [8]; [13]) was “Growth” and the Outcome (UTI704 [8]; [14]) was “Growth”. The Outcome (UTI704 [8]; [11]) was “Growth” and the Outcome (UTI704 [8]; [12]) was “Death”.

In the case of CC1COc2c(N3CCN(C)CC3)c(F)cc3c(=O)c(C(=O)O)cn1c23 (stereo not shown) [Ofloxacin, ofloxacin], the “CMI (Vitek)” value (UTI687 [9]) is reported as 0.5 mg/L, the “CMI (measured)” value (UTI687 [10]; chitosan χ1) is reported as at most 0.25 mg/L and the Outcome (UTI687 [10]; [13]) is reported as “Death”. The Outcome (UTI687 [10]; [14]) was “Death”, the Outcome (UTI687 [10]; [11]) was “Death” and the Outcome (UTI687 [10]; [12]) was “Death”.

In the case of CC1(C)S[C@@H]2[C@H](NC(=O)[C@H](N)c3ccccc3)C(=O)N2[C@H]1C(=O)O [ampicillin], the “Time at which morphological changes were observed” value (K12; 100 μg/ml) is reported as under 1 hour, the “Time of cell death imaged by lysis” value (K12; 100 μg/ml, incubation) is reported as about 2 h and the “Effect on cells (in words)” value (K12; LB supplemented with 100 μg/ml) is reported as “cells extended but did not divide”.
